Experiments:
[1] = Lipophilicity, log D by shake-flask method (1-octanol/PBS pH 7.4); type: physicochemical; details: shake-flask, Table 17, mean ± SD
Procedure, shortened: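 Radiotracer shaken 30 min in pre-saturated 1-octanol/PBS pH 7.4 (1:1), then centrifuged for phase separation. Radioactivity in each phase measured by gamma counting; log D reported as the average log of organic/PBS activity ratio.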

LNCaP xenografts [2] = assay: Quantitative biodistribution in LNCaP xenografted mice; type: in vivo; details: for kidney uptake: 1h p.i.
Method: The mice were randomly distributed in groups and euthanized at 1 and at 4 hours post-injection. The organs of interest were collected, rinsed, blotted, weighed and counted in a gamma counter. The results are expressed as percentage of injected activity per gram (% IA/g), representing the mean±standard deviation of n=4-8 mice per group and they were obtained by extrapolation from counts of an aliquot taken from the injected solution as standard.
The biodistribution of the [^61Cu]Cu-NODAGA radiotracers was compared with the reference compounds used in patients under identical experimental conditions. The mice were randomly distributed in groups, injected with the radiotracer under investigation and euthanized at 1 and at 4 hours post-injection of the radiotracers under investigation. The organs of interest were collected, rinsed, blotted, weighed and counted in a gamma counter. The results are expressed as percentage of injected activity per gram (% IA/g), representing the mean±standard deviation of all mice per group and they were obtained by extrapolation from counts of an aliquot taken from the injected solution as standard.

LNCaP xenografts [3] = assay: PET/CT imaging in LNCaP xenografted mice; type: in vivo; details: LNCaP-xenografted nude mice
Method: Tumor xenografted mice were injected intravenously into the tail vein with the tested radiotracer. […] Mice were anesthetized with 1.5% isoflurane and dynamic PET scans were acquired during 1 hour upon injection of the radiotracer. The mice were euthanized by CO2 at 4 hours p.i., the bladder was mechanically emptied, and static PET scans were acquired for 30 min. PET images were acquired using the R-CUBE PET scanner system (MOLECUBES, Gent, Belgium) and they were decay corrected and reconstructed with the VivoQuant software version 4.0. The CT was imaged supine, headfirst, using the NanoSPECT/CT™ scanner (Bioscan Inc.). Topograms and helical CT scans of the whole mouse were first acquired using the following parameters: X-ray tube current: 177 μA, X-ray tube voltage 45 kVp, 90 seconds and 180 frames per rotation, pitch 1. CT images were reconstructed using CTReco (version r1.146), with a standard filtered back projection algorithm (exact cone beam) and post-filtered (RamLak, 100% frequency cut-off), resulting in a pixel size of 0.2 mm. Co-registered PET/CT images were visualized using maximum intensity projection (MIP) with InVivoScope (version 1.43, Bioscan Inc.). The results are presented in the Examples that follow.

[4] = LNCap xenograft mice, 1 h after injection
[5] = LNCap xenograft mice, 4 h after injection

SMILES: O=C(O)CC[C@H](NC(=O)N[C@@H](CCCCNC(=O)CCCCCCC(=O)NCCCC[C@@H](NC(=O)[C@@H](Cc1ccccc1)NC(=O)[C@@H](Cc1ccc(O)c(I)c1)NC(=O)CC[C@H](C(=O)O)N1CCN2CCN(CC1)CC(=O)[O][61Cu][O]C(=O)C2)C(=O)O)C(=O)O)C(=O)O [[^61Cu]Cu-NODAGA-PSMA-I&T]
- log D(O/PBS pH 7.4) [1]: −2.95±0.08
- Biodistribution Adrenal (LNCaP xenografts [2]; 1 hour p.i., LNCaP xenografts): 17.3 ± 3.26 % IA/g
- Biodistribution Blood (LNCaP xenografts [2]; 1 hour p.i., LNCaP xenografts): 0.28 ± 0.06 % IA/g
- Biodistribution Bone (LNCaP xenografts [2]; 1 hour p.i., LNCaP xenografts): 2.73 ± 0.91 % IA/g
- Biodistribution Heart (LNCaP xenografts [2]; 1 hour p.i., LNCaP xenografts): 0.45 ± 0.15 % IA/g
- Biodistribution Intestine (LNCaP xenografts [2]; 1 hour p.i., LNCaP xenografts): 2.11 ± 0.78 % IA/g
- Biodistribution Kidneys (LNCaP xenografts [2]; 1 hour p.i., LNCaP xenografts): 118 ± 13 % IA/g
- Biodistribution LNCaP-tumor (LNCaP xenografts [2]; 1 hour p.i., LNCaP xenografts): 14.0 ± 5.0 % IA/g
- Biodistribution Liver (LNCaP xenografts [2]; 1 hour p.i., LNCaP xenografts): 1.02 ± 0.28 % IA/g
- Biodistribution Lung (LNCaP xenografts [2]; 1 hour p.i., LNCaP xenografts): 1.69 ± 0.45 % IA/g
- Biodistribution Muscle (LNCaP xenografts [2]; 1 hour p.i., LNCaP xenografts): 1.12 ± 0.32 % IA/g
- Biodistribution Pancreas (LNCaP xenografts [2]; 1 hour p.i., LNCaP xenografts): 0.97 ± 0.36 % IA/g
- Biodistribution Salivary glands (LNCaP xenografts [2]; 1 hour p.i., LNCaP xenografts): 2.01 ± 0.33 % IA/g
- Biodistribution Spleen (LNCaP xenografts [2]; 1 hour p.i., LNCaP xenografts): 6.04 ± 1.87 % IA/g
- Biodistribution Stomach (LNCaP xenografts [2]; 1 hour p.i., LNCaP xenografts): 1.13 ± 0.20 % IA/g
- Ratio Tumor/Blood (LNCaP xenografts [2]; 1 hour p.i., LNCaP xenografts): 55.8 ± 20.0
- Ratio Tumor/Kidney (LNCaP xenografts [2]; 1 hour p.i., LNCaP xenografts): 0.13 ± 0.03
- Ratio Tumor/Liver (LNCaP xenografts [2]; 1 hour p.i., LNCaP xenografts): 14.9 ± 4.9
- Ratio Tumor/Muscles (LNCaP xenografts [2]; 1 hour p.i., LNCaP xenografts): 13.6 ± 3.75
- kidney uptake (LNCaP xenografts [2]; injected amount 200 μmol (so in the source)): 96 % IA/g
- kidney uptake (LNCaP xenografts [2]; injected amount 400 μmol (so in the source)): 72 % IA/g
- kidney uptake (LNCaP xenografts [2]; injected amount 1000 μmol (so in the source)): 34 % IA/g
- Biodistribution Adrenal (LNCaP xenografts [2]; 4 hours p.i., LNCaP xenografts): 8.32 ± 2.87 % IA/g
- Biodistribution Blood (LNCaP xenografts [2]; 4 hours p.i., LNCaP xenografts): 0.10 ± 0.03 % IA/g
- Biodistribution Bone (LNCaP xenografts [2]; 4 hours p.i., LNCaP xenografts): 1.34 ± 0.48 % IA/g
- Biodistribution Heart (LNCaP xenografts [2]; 4 hours p.i., LNCaP xenografts): 0.22 ± 0.05 % IA/g
- Biodistribution Intestine (LNCaP xenografts [2]; 4 hours p.i., LNCaP xenografts): 1.06 ± 0.50 % IA/g
- Biodistribution Kidneys (LNCaP xenografts [2]; 4 hours p.i., LNCaP xenografts): 91 ± 10 % IA/g
- Biodistribution LNCaP-tumor (LNCaP xenografts [2]; 4 hours p.i., LNCaP xenografts): 10.7 ± 3.3 % IA/g
- Biodistribution Liver (LNCaP xenografts [2]; 4 hours p.i., LNCaP xenografts): 0.72 ± 0.11 % IA/g
- Biodistribution Lung (LNCaP xenografts [2]; 4 hours p.i., LNCaP xenografts): 0.74 ± 0.19 % IA/g
- Biodistribution Muscle (LNCaP xenografts [2]; 4 hours p.i., LNCaP xenografts): 0.50 ± 0.22 % IA/g
- Biodistribution Pancreas (LNCaP xenografts [2]; 4 hours p.i., LNCaP xenografts): 0.45 ± 0.09 % IA/g
- Biodistribution Salivary glands (LNCaP xenografts [2]; 4 hours p.i., LNCaP xenografts): 0.52 ± 0.06 % IA/g
- Biodistribution Spleen (LNCaP xenografts [2]; 4 hours p.i., LNCaP xenografts): 1.28 ± 0.39 % IA/g
- Biodistribution Stomach (LNCaP xenografts [2]; 4 hours p.i., LNCaP xenografts): 0.66 ± 0.15 % IA/g
- Ratio Tumor/Blood (LNCaP xenografts [2]; 4 hours p.i., LNCaP xenografts): 109 ± 43
- Ratio Tumor/Kidney (LNCaP xenografts [2]; 4 hours p.i., LNCaP xenografts): 0.12 ± 0.03
- Ratio Tumor/Liver (LNCaP xenografts [2]; 4 hours p.i., LNCaP xenografts): 15.4 ± 5.7
- Ratio Tumor/Muscles (LNCaP xenografts [2]; 4 hours p.i., LNCaP xenografts): 25.4 ± 12.0
- tumor uptake (LNCaP xenografts [2]; 4h p.i., LNCaP xenograft mice, comparison with reference radiotracer, p=0.0145): 10.7±3.3 % IA/g
- accumulation in tumor and target-positive tissues (LNCaP xenografts [2]; LNCaP xenografts): high accumulation in PSMA-positive (LNCaP) tumor and PSMA-positive tissues
- Biodistribution Adrenal (LNCaP xenografts [2]; [4]): 17.3 ± 3.26 % IA/g
- Biodistribution Blood (LNCaP xenografts [2]; [4]): 0.28 ± 0.06 % IA/g
- Biodistribution Bone (LNCaP xenografts [2]; [4]): 2.73 ± 0.91 % IA/g
- Biodistribution Heart (LNCaP xenografts [2]; [4]): 0.45 ± 0.15 % IA/g
- Biodistribution Intestine (LNCaP xenografts [2]; [4]): 2.11 ± 0.78 % IA/g
- Biodistribution Kidney (LNCaP xenografts [2]; [4]): 118 ± 13 % IA/g
- Biodistribution LNCaP-tumor (LNCaP xenografts [2]; [4]): 14.0 ± 5.0 % IA/g
- Biodistribution Liver (LNCaP xenografts [2]; [4]): 1.02 ± 0.28 % IA/g
- Biodistribution Lung (LNCaP xenografts [2]; [4]): 1.69 ± 0.45 % IA/g
- Biodistribution Muscle (LNCaP xenografts [2]; [4]): 1.12 ± 0.32 % IA/g
- Biodistribution Pancreas (LNCaP xenografts [2]; [4]): 0.97 ± 0.36 % IA/g
- Biodistribution Salivary gland (LNCaP xenografts [2]; [4]): 2.01 ± 0.33 % IA/g
- Biodistribution Spleen (LNCaP xenografts [2]; [4]): 6.04 ± 1.87 % IA/g
- Biodistribution Stomach (LNCaP xenografts [2]; [4]): 1.13 ± 0.20 % IA/g
- Ratio Tumor/Blood (LNCaP xenografts [2]; [4]): 55.8 ± 20.0
- Ratio Tumor/Kidney (LNCaP xenografts [2]; [4]): 0.13 ± 0.03
- Ratio Tumor/Liver (LNCaP xenografts [2]; [4]): 14.9 ± 4.9
- Ratio Tumor/Muscles (LNCaP xenografts [2]; [4]): 13.6 ± 3.75
- Biodistribution Adrenal (LNCaP xenografts [2]; [5]): 8.32 ± 2.87 % IA/g
- Biodistribution Blood (LNCaP xenografts [2]; [5]): 0.10 ± 0.03 % IA/g
- Biodistribution Bone (LNCaP xenografts [2]; [5]): 1.34 ± 0.48 % IA/g
- Biodistribution Heart (LNCaP xenografts [2]; [5]): 0.22 ± 0.05 % IA/g
- Biodistribution Intestine (LNCaP xenografts [2]; [5]): 1.06 ± 0.50 % IA/g
- Biodistribution Kidney (LNCaP xenografts [2]; [5]): 90.9 ± 10.1 % IA/g
- Biodistribution LNCaP-tumor (LNCaP xenografts [2]; [5]): 10.7 ± 3.3 % IA/g
- Biodistribution Liver (LNCaP xenografts [2]; [5]): 0.72 ± 0.11 % IA/g
- Biodistribution Lung (LNCaP xenografts [2]; [5]): 0.74 ± 0.19 % IA/g
- Biodistribution Muscle (LNCaP xenografts [2]; [5]): 0.50 ± 0.22 % IA/g
- Biodistribution Pancreas (LNCaP xenografts [2]; [5]): 0.45 ± 0.09 % IA/g
- Biodistribution Salivary gland (LNCaP xenografts [2]; [5]): 0.52 ± 0.06 % IA/g
- Biodistribution Spleen (LNCaP xenografts [2]; [5]): 1.28 ± 0.39 % IA/g
- Biodistribution Stomach (LNCaP xenografts [2]; [5]): 0.66 ± 0.15 % IA/g
- Ratio Tumor/Blood (LNCaP xenografts [2]; [5]): 109 ± 43
- Ratio Tumor/Kidney (LNCaP xenografts [2]; [5]): 0.12 ± 0.03
- Ratio Tumor/Liver (LNCaP xenografts [2]; [5]): 15.4 ± 5.7
- Ratio Tumor/Muscles (LNCaP xenografts [2]; [5]): 25.4 ± 12.0
- distribution on PET/CT images (LNCaP xenografts [3]): accumulated in the tumor, increasing from 15 up to 60 min p.i., and in the kidneys
